Assay results: US10921257B2, “Method and system of pesticide detection using SERS” (priority 2016, dated 2021)

Key:
spinach leaves [1] = test: SERS depth mapping of pesticide and AuNPs penetration into spinach leaves (Example 2); conditions: 100 mg/L
Experimental: (§1) Organic grapes and spinach leaves were carefully hand washed as described above for apples before experiment to remove surface contaminants. In order to study pesticide penetration in grapes, the same two washing methods were used as presented above for apples. Grapes treated with each pesticides solution (100 mg/L) were washed with either a 5% acetic acid or 1% NaHCO3 solution. Washing effects were evaluated using the SERS methods and the penetration behaviors of each pesticide were monitored as for apple above. Pesticides penetration experiments on spinach leaves were carried out as described above for apple and grape.
(§2) A DXR Raman microscope (Thermo Fisher Scientific, Madison, Wis., USA) with a 780 nm laser and a 20× long distance microscope objective was used in this study. Each sample was scanned from 400 to 2000 cm^−1 for a 2 s exposure time. For measuring pesticides on both gold slides and fresh produce surfaces, Raman mapping was carried out using a 50 μm slit aperture and 5 mW laser power to maximize the signals. Ten discrete locations were randomly chosen on each sample for analysis. For penetration studies, SERS depth mapping images were obtained using a 50 μm pinhole aperture and 1 mW laser power to control the confocal depths using a scanning depth of 300 μm. Each depth scanning vertical to produce surface was randomly selected in apple peel, grape peel or spinach leaf with an area of 100 μm×300 μm. The step size of the depth mapping was 20 μm and one image contained 75 scanning spots. Raman images were integrated based on the characteristic peaks in the pesticide spectra using the Atlμs Function in the OMINCS software (Thermo Fisher Scientific). Statistical analysis was conducted using SPSS Statistics 22 software (IBM Corporation, Armonk, N.Y., USA). The differences among results were calculated using an analysis of variance (ANOVA) and a post hoc Duncan test with a confidence level of 95%.

grape = test: SERS depth mapping of pesticide and AuNPs penetration into grapes (Example 2); conditions: 100 mg/L
Experimental: as §1, §2

apple = test: SERS depth mapping of pesticide and AuNPs penetration into apples (Example 2); conditions: 100 mg/L
Experimental: Organic apples were carefully hand washed with ultrapure water for 3 min and air-dried before experiment to remove surface contaminants. Then a 5 μL aliquot from a 100 mg/L solution of each pesticide was pipetted onto the apple surface. After air-drying the pesticides, apple peels with ˜2.0×2.0 cm^2 area were cut from each treated apple using a sharp knife. To determine pesticide penetration with penetrative AuNPs, any interference caused by pesticide residues on the apple surface were removed by washing. Two different washing methods were investigated using either an acetic acid- or NaHCO3-containing solution. Each peel was immersed into 20 mL of either a 5% acetic acid or a 1% NaHCO3 solution for different times and gently rinsed with 200 mL of deionized water for 10 s, respectively. All washed samples were air-dried at room temperature for 10 min before being treated with AuNPs. After drying AuNPs for 1 h, SERS detection was performed on that area to evaluate washing effects. Ten discrete locations were randomly chosen on each apple peel sample and scanned. Similar samples were prepared without either washing method and were scanned as above for comparisons.
Following drying, the surface residues from each applied pesticide were washed off using either the NaHCO3 or acetic acid solution and a 5 μL aliquot of the 250 mg/L AuNPs solution was added as described above. After 1 h of drying, SERS depth mapping images were obtained using the confocal Raman instrument.
A DXR Raman microscope (Thermo Fisher Scientific, Madison, Wis., USA) with a 780 nm laser and a 20× long distance microscope objective was used in this study. Each sample was scanned from 400 to 2000 cm^−1 for a 2 s exposure time. […] Ten discrete locations were randomly chosen on each sample for analysis. For penetration studies, SERS depth mapping images were obtained using a 50 μm pinhole aperture and 1 mW laser power to control the confocal depths using a scanning depth of 300 μm. […] The step size of the depth mapping was 20 μm and one image contained 75 scanning spots. Raman images were integrated based on the characteristic peaks in the pesticide spectra using the Atlμs Function in the OMINCS software (Thermo Fisher Scientific). […] The differences among results were calculated using an analysis of variance (ANOVA) and a post hoc Duncan test with a confidence level of 95%.

spinach leaves [2] = test: SERS depth mapping of pesticide and AuNPs penetration into spinach leaves (Example 1); conditions: 20 ppm
Experimental: These leaves were carefully washed with ultrapure water and dried before experimentation. […] A volume of 50 μL of each solution was then mixed with 50 μL of a 250 ppm 50 nm AuNPs solution for 1 min. at room temperature to ensure complete pesticide complexation with AuNPs through Au-thiol bond. 5 μL of each of the pre-prepared pesticide solution were then pipetted onto spinach leaves situated on a glass slide and air-dried in a fume hood for 30 min. […] All controls were air-dried in a fume hood as above. For evaluation of feasibility of Raman detection of pesticides on spinach leaves, 5 μL of the pre-prepared pesticide solution and AuNPs solution without pesticide were also dropped onto a gold slide and dried for 30 min in a hood for comparisons. Raman spectra were collected individually for all treatments.
After 1 h, bright field light scattering images and SERS mapping images were collected from all samples.
In order to remove any interference caused by pesticide residues on the spinach leaf surface, different washing methods were investigated. […] Then each leaf was immersed into 20 mL of deionized water or 20 mL of a 10 mg/mL of NaHCO3 solution. For the water washing method, each leaf was submerged into water for either 10 or 60 min. For the NaHCO3 washing method, each leaf was submerged into the NaHCO3 solution for 30, 60, 90, or 120 s and then gently rinsed with 500 mL of deionized water for 30 s, respectively. All washed leaf samples were air-dried at room temperature for 30 min before being treated with AuNPs. […]
After 1 h for drying, SERS depth mapping images were obtained using the confocal Raman instrument. Similar samples without washing were likewise measured for comparison purposes.
To study accurate systemic pesticide penetration, different washing methods were also used to remove surface thiabendazole residues. […] Surface thiabendazole residues were then analyzed by pipetting 5 μL of a 250 ppm AuNP solution onto the same leaf area where thiabendazole had been placed prior to washing and determining SERS depth mapping images by Raman instrument as before. […]

live basil leaves = test: SERS depth mapping of pesticide and AuNPs penetration into live basil leaves (Example 3)
Experimental: (§3) A 5 μL aliquot of the mixture was pipetted onto harvested leaves or onto the live leaves on the plant. After air drying for 30 min, SERS depth mapping images were obtained using a confocal Raman instrument as detailed below.
For the study of pesticide penetration into live basil leaves, 36 intact leaves (approximately 0.2 g per leaf) were selected from six live plants as the experimental target (6 leaves per plant) and carefully rinsed with 450 mL ultrapure water for 30 s and air-dried before the experiment to remove surface contaminants like dust. After rinsing, the clean leaves were used to study of pesticide penetration. […] Some of the pesticides might penetrate into leaves from the surface during the periods. After pesticide penetrated into leaves for different time periods, ultrapure water with flow rate of 15 mL/s was utilized to gently rinse the surface of leaves (Step 2). Different rinsing times were then investigated to complete removal of each pesticide residue on the surface. After rinsing of surface pesticide residues, all leaf samples were air-dried at room temperature for 30 min. […] The video camera in the Raman microscope was used to record the position on the leaves and help to find the same area for AuNPs deposition. After AuNPs treatment for drying 30 min, SERS detection was performed on that area using the confocal Raman instrument. Each treatment was performed twice.
For penetration studies, SERS depth mapping images were obtained using a 50 μm pinhole aperture and 3 mW laser power to control the confocal depth using a scanning depth of 300 μm. Each depth area (100 μm×300 μm) was chosen from the treated spot on the leaf distant from a gland because the gland is the cavity, not a flat surface. The step size of the depth mapping was 20 μm and one image contained 75 scanning spots. Raman images were integrated based on the characteristic peaks in the pesticide spectra using the Atlμs Function in the OMINCS software (Thermo Fisher Scientific). There was one spot on each leaf and one depth area was selected from each spot. For each pesticide depth mapping experiment, there were six duplicates with six leaves coming from three different plants (2 leaves from each plant).
Pesticide penetration was investigated using both intact and damaged leaves on live plants. Damaged leaves were prepared using a sharp knife to scratch the top surface of intact leaves. Each of the damaged leaves had 20 scrapes on each leaf and the distance between each scrape is 0.2 cm.

harvested basil leaves = test: SERS depth mapping of pesticide and AuNPs penetration into harvested basil leaves (Example 3); conditions: 10 mg/L
Experimental: as §3
For the study of the pesticides penetration on harvested basil leaves, 36 intact leaves (0.2 g per leaf) were first cut off from petiole on live plants using a sharp knife and carefully rinsed as described above for live leaves. During the experiment, the stems of each harvested leaf were immersed into water to keep the leaf fresh. To study pesticide penetration into harvested leaves, the same rinsing method and pesticides penetration protocols were carried out as described above for live leaves.
For penetration studies, SERS depth mapping images were obtained using a 50 μm pinhole aperture and 3 mW laser power to control the confocal depth using a scanning depth of 300 μm. Each depth area (100 μm×300 μm) was chosen from the treated spot on the leaf distant from a gland because the gland is the cavity, not a flat surface. The step size of the depth mapping was 20 μm and one image contained 75 scanning spots. […] The differences among results were calculated using an independent sample T-test or analysis of variance (ANOVA) and a post hoc Duncan test with a confidence level of 95%.

[3] = 48 h exposure, surface residues washed off

COP(=S)(OC)SCN1C(=O)c2ccccc2C1=O [phosmet, O,O-dimethyl S-Phthalimido Methyl Phosphorodithioate]
Exposure time at which pesticide was first detected (spinach leaves [1]): 24 h
Penetration depth (spinach leaves [1]; [3]): 70 μm
Exposure time at which penetration was first observed (grape): 48 h
Penetration depth (grape; [3]): about 20 μm
Exposure time at which pesticide was first detected (apple): 6 h
Penetration depth (apple; [3]): ~55 μm

C/C(=N\C#N)N(C)Cc1ccc(Cl)nc1 [acetamiprid, (E)-N-[(6-chloro-3-pyridyl)methyl]-N′-cyano-N-methylethanimidamide]
Penetration depth (spinach leaves [1]; [3]): 90 μm
Exposure time at which penetration was first apparent (grape): 30 min
Penetration depth (grape; [3]): about 75 μm
Exposure time at which penetration was first observed (apple): 30 min
Penetration depth (apple; [3]): ~140 μm

c1ccc2[nH]c(-c3cscn3)nc2c1 [thiabendazole, 2-(4-thiazolyl)-1H-benzimidazole]
Earliest time of detecting pesticide inside leaves (spinach leaves [2]; surface residues washed off with NaHCO3): 6 h
Penetration depth in depth mapping images with increasing exposure time (spinach leaves [2]; washed): approximately 150 μm
Penetration depth from scans parallel to leaf surface at different depths (spinach leaves [2]; washed, 2 days exposure): approximately 210 μm
Exposure time at which pesticide was first detected (spinach leaves [1]): 0.5 h
Penetration depth (spinach leaves [1]; 30 min): 100 μm
Penetration depth (spinach leaves [1]; 24 h): ~160 μm
Penetration depth (spinach leaves [1]; [3]): ~220 μm
Exposure time at which penetration was first apparent (grape): 30 min
Penetration depth (grape; 24 h): about 36 μm
Penetration depth (grape; [3]): about 55 μm
Exposure time at which penetration was first seen (live basil leaves; 10 mg/L, live leaves): 30 min
Penetration depth (live basil leaves; 10 mg/L, live leaves, 48 h after exposure, surface rinsed): ~225 μm
Penetration depth (live basil leaves; damaged (knife-scratched) leaves on live plants): 80 μm
Penetration depth (live basil leaves; intact leaves on live plants): 170 μm
Penetration depth (live basil leaves; large (old, 45 days) leaves, 24 h exposure): 165 μm
Penetration depth (live basil leaves; small (young, 15 days) leaves, 24 h exposure): 95 μm
Exposure time at which penetration was first observed (apple): 30 min
Penetration depth (apple; 24 h): about 140 μm
Penetration depth (apple; [3]): approximately 160 μm
Exposure time at which penetration was first seen (harvested basil leaves): 30 min
Penetration depth (harvested basil leaves; 48 h after exposure, surface rinsed): approximately 180 μm
